According to patent publication US20210392936A1, “Nutritional composition comprising urea and non-digestible oligosaccharides” (N.V. Nutricia, priority 2018, published 2021):

Assays:
[1] = system: urease positive B. longum ssp. infantis strains M-63, ATCC17930, DN_163_0041 and R-0033; test: Growth with urea concentrations or tryptone as nitrogen source, scGOS/IcFOS as carbon source (Example 3, second experiment), urease positive; assay type: cell-based, Bifidobacterium longum ssp. infantis; settings: scGOS/IcFOS 20 g/l
Method: Fermenters were sterilized containing 80 ml demi water and 20 ml of a 20 wt % solution of scGOS/IcFOS in a 9:1 wt/wt ratio. As a source of scGOS VivinalGOS (DOMO, Friesland Campina) was used, and as a source of IcFOS, RaftilinHP was used (Orafti). After sterilization 100 ml of sterilized 2× concentrated BASE medium was added. The final concentration of scGOS/IcFOS was 2 wt % based on volume, and this served as the carbon source. As a nitrogen source tryptone was added (3.0 g/l), or 0, 10, 50 or 100 mM urea (final concentration), corresponding to 0, 0.6 g/l, 3 g/l and 6 g/l. Precultures were grown in static tubes in 1×BASE supplemented with 3.0 g/l tryptone and 2 wt % scGOS/IcFOS under an anaerobic gas atmosphere (90% N2, 5% Hz, 5% CO2).
Inoculation occurred from a single colonies grown on TOS-mupirocin agar plates as known in the art. The main cultures (in the fermenters) were performed with 1×BASE supplemented with 0, 15, 50 or 100 mM urea (if applicable). During fermentation the headspace was flushed with N2 gas or with an anaerobic gas mixture ((90% N2, 5% H2, 5% CO2). CO2 is known to be needed for the growth of most Bifidobacteria in the absence of substrates that can liberate CO2.
The main fermenters were inoculated with the preculture of B. breve at an OD600 of 0.05. For the B. longum subspecies infantis and bifidum mix the individual precultures were first mixed in an equal amount based on OD600 and subsequently also inoculated with a start OD600 of 0.05. The medium was stirred at 360 rpm by magnet stirring bar. The pH was controlled at 6.2 by addition of 5M NaOH. All growth (precultures, main fermenters, agar plates) experiments were performed at 37° C. Growth was monitored in time by off-line OD600 measurement. Samples were diluted before measurement where appropriate.
A second experiment was performed. Here the growth with different concentrations urea as nitrogen (and CO2) source was compared to Tryptone (from Oxoid) as nitrogen source. In this case only B. longum ssp. infantis strains M-63, ATCC17930, DN_163_0041 and R-0033 were used and tryptone was removed from the basal medium. Where applicable tryptone or urea were added as nitrogen source to final concentrations of 3 g/l and 10, 50 or 100 mM, respectively. Instead of lactose as carbon source scGOS/IcFOS in a 9:1 wt/wt ratio was used in a final concentration of 20 g/l. As a source of scGOS VivinalGOS (FrieslandCampina) was used, and RaftininHP (Orafti) was used as IcFOS source.

[2] = system: Bifidobacterium longum subspecies infantis ATCC 17930 (urease positive); test: Growth of strain ATCC 17930 with or without urea, CO2 and 2'FL as carbon source (Example 4); assay type: cell-based; settings: 10 mM urea
Method: In this experiment the urease positive strain Bifidobacterium longum subspecies infantis ATCC 17930, was used. The same growth media and experimental set up as in the second experiment described in example 3 was used, except that instead of scGOS/IcFOS, 2′-fucosyllactose (Jennewein Biotechnologie GmbH) was used as a carbon and energy source. As a nitrogen source tryptone was added (3.0 g/l), or no urea or 10 mM urea (final concentration), corresponding to 0, or 0.6 g/l urea.

[3] = system: B. longum spp infantis M-63, B. longum subspecies infantis ATCC 17930, B. longum ssp. infantis R-0033 (single strains); test: Growth of single urease positive strains with urea and a carbon source without CO2 and other nitrogen source; assay type: cell-based, Bifidobacterium longum subspecies infantis; settings: presence of urea and a carbon source, absence of CO2 and other nitrogen source; data not shown
Description: The following strains were used: Bifidobacterium breve DSM20213, which is the type strain of B. breve and urease negative. A mix of Bifidobacterium longum subspecies infantis strains was used that were predicted to be urease positive, to increase the chance of having a urease activity. […] Strains used were a mix of Bifidobacterium longum spp infantis DSM20088 (type strain), B. infantis M-63 (Morinaga), B. longum subspecies infantis ATCC 17930, B. longum subspecies infantis DN_163_0041 isolated from the faeces of a bottle-fed infants, B. infantis DN_163_0046 and B. longum ssp. infantis R-0033 (Lallemand) and Bifidobacterium bifidum ATCC29521 (type strain).

## NC(N)=O [urea]
[1]; CO2 gas, 50 mM urea, 15 min
  Growth expressed as OD600: 0.079 OD600
[1]; CO2 gas, 50 mM urea, 135 min
  Growth expressed as OD600: 0.161 OD600
[1]; CO2 gas, 50 mM urea, 270 min
  Growth expressed as OD600: 0.670 OD600
[1]; CO2 gas, 50 mM urea, 445 min
  Growth expressed as OD600: 2.610 OD600
[1]; CO2 gas, 50 mM urea, 625 min
  Growth expressed as OD600: 6.500 OD600
[1]; CO2 gas, 50 mM urea, 24 h
  Growth expressed as OD600: 6.5 OD600
[1]; N2 gas, 10 mM urea, 15 min
  Growth expressed as OD600: 0.084 OD600
[1]; N2 gas, 10 mM urea, 135 min
  Growth expressed as OD600: 0.137 OD600
[1]; N2 gas, 10 mM urea, 270 min
  Growth expressed as OD600: 0.390 OD600
[1]; N2 gas, 10 mM urea, 445 min
  Growth expressed as OD600: 1.280 OD600
[1]; N2 gas, 10 mM urea, 625 min
  Growth expressed as OD600: 3.900 OD600
[1]; N2 gas, 10 mM urea, 24 h
  Growth expressed as OD600: 3.720 OD600
[1]; N2 gas, 50 mM urea, 15 min
  Growth expressed as OD600: 0.082 OD600
[1]; N2 gas, 50 mM urea, 135 min
  Growth expressed as OD600: 0.140 OD600
[1]; N2 gas, 50 mM urea, 270 min
  Growth expressed as OD600: 0.450 OD600
[1]; N2 gas, 50 mM urea, 445 min
  Growth expressed as OD600: 1.260 OD600
[1]; N2 gas, 50 mM urea, 625 min
  Growth expressed as OD600: 2.970 OD600
[1]; N2 gas, 50 mM urea, 24 h
  Growth expressed as OD600: 2.850 OD600
[1]; N2 gas, 100 mM urea, 15 min
  Growth expressed as OD600: 0.079 OD600
[1]; N2 gas, 100 mM urea, 135 min
  Growth expressed as OD600: 0.144 OD600
[1]; N2 gas, 100 mM urea, 270 min
  Growth expressed as OD600: 0.430 OD600
[1]; N2 gas, 100 mM urea, 445 min
  Growth expressed as OD600: 1.130 OD600
[1]; N2 gas, 100 mM urea, 625 min
  Growth expressed as OD600: 2.800 OD600
[1]; N2 gas, 100 mM urea, 24 h
  Growth expressed as OD600: 2.520 OD600
[2]; CO2 gas, with 2'FL C source (+), 30 min
  Growth expressed as OD600: 0.072 OD600
[2]; CO2 gas, with 2'FL C source (+), 240 min
  Growth expressed as OD600: 0.298 OD600
[2]; CO2 gas, with 2'FL C source (+), 360 min
  Growth expressed as OD600: 0.880 OD600
[2]; CO2 gas, with 2'FL C source (+), 540 min
  Growth expressed as OD600: 2.070 OD600
[2]; CO2 gas, with 2'FL C source (+), 24 h
  Growth expressed as OD600: 3.060 OD600
[2]; CO2 gas, without 2'FL C source (−), 30 min
  Growth expressed as OD600: 0.071 OD600
[2]; CO2 gas, without 2'FL C source (−), 240 min
  Growth expressed as OD600: 0.203 OD600
[2]; CO2 gas, without 2'FL C source (−), 360 min
  Growth expressed as OD600: 0.191 OD600
[2]; CO2 gas, without 2'FL C source (−), 540 min
  Growth expressed as OD600: 0.191 OD600
[2]; CO2 gas, without 2'FL C source (−), 24 h
  Growth expressed as OD600: 0.187 OD600
[2]; N2 gas, with 2'FL C source (+), 30 min
  Growth expressed as OD600: 0.079 OD600
[2]; N2 gas, with 2'FL C source (+), 240 min
  Growth expressed as OD600: 0.154 OD600
[2]; N2 gas, with 2'FL C source (+), 360 min
  Growth expressed as OD600: 0.350 OD600
[2]; N2 gas, with 2'FL C source (+), 540 min
  Growth expressed as OD600: 0.600 OD600
[2]; N2 gas, with 2'FL C source (+), 24 h
  Growth expressed as OD600: 1.320 OD600
[2]; N2 gas, without 2'FL C source (−), 30 min
  Growth expressed as OD600: 0.068 OD600
[2]; N2 gas, without 2'FL C source (−), 240 min
  Growth expressed as OD600: 0.175 OD600
[2]; N2 gas, without 2'FL C source (−), 360 min
  Growth expressed as OD600: 0.179 OD600
[2]; N2 gas, without 2'FL C source (−), 540 min
  Growth expressed as OD600: 0.163 OD600
[2]; N2 gas, without 2'FL C source (−), 24 h
  Growth expressed as OD600: 0.157 OD600
[3]
  Growth of single strains: able to grow very well
